We go through one compound from patent US20060112439A1, “Delta opioid receptor disruptions, compositions and methods related thereto” (priority 2001, published 2006).

Structures are written as SMILES.

The test system of the experiment is mice (F2N1 wild-type and delta-opioid receptor homozygous mutant). As to the kind of experiment: Metrazol Test (seizure susceptibility; tail vein infusion of pentylenetetrazole). Type of experiment: in vivo, mouse. To be noted: n=10, about 5 mg/ml infused via tail vein at about 0.375 ml/min. The procedure: A metrazol administration test can be used to screen animals for varying susceptibilities to seizures or similar events. For example, a 5 mg/ml solution of metrazol can be infused through the tail vein of a mouse at a rate of, e.g., approximately 0.375 ml/min. The infusion will cause all mice to experience seizures, followed by death. Those mice that enter the seizure stage the soonest are believed to be more prone to seizures.
To screen for phenotypes involving changes in seizure susceptibility, the Metrazol Test was be used. About 5 mg/ml of Metrazol was infused through the tail vein of the mouse at a constant rate of about 0.375 ml/min. The infusion caused all mice to experience seizures. Those mice entering the seizure stage the quickest were thought to be more prone to seizures in general.
The Metrazol test can also be used to screen for phenotypes related to epilepsy. Ten adult F2N1 wild-type control male mice and ten F2N1 homozygous mutant males were used, all derived from the same ES cell line. A fresh solution of about 5 mg/ml pentylenetetrazole in approximately 0.9% NaCl was prepared prior to testing. Mice were weighed and loosely held in a restrainer. After exposure to a heat lamp to dilate the tail vein, mice were continuously infused with the pentylenetetrazole solution using a syringe pump set at a constant flow rate. The following stages were recorded: first twitch (sometimes accompanied by a squeak), beginning of the tonic/clonic seizure, tonic extension and survival time. The dose required for each phase was determined and the latency to each phase was determined between genotypes. Alterations in any stage may indicate an overall imbalance in excitatory or inhibitory neurotransmitter levels.

The mark [1] stands for this setting: F2N1 delta-opioid receptor homozygous mutant (−/−) male mice.

Take `C1CCc2nnnn2CC1` [metrazol, pentylenetetrazole]: under setting [1], the “Dose (average ± std dev) to death” value is 121.96 ± 31.09 mg/kg, the “Dose (average ± std dev) to first twitch” value was 30.97 ± 5.20 mg/kg, the “Dose (average ± std dev) to tonic extension” value is 97.59 ± 32.27 mg/kg and the “Dose (average ± std dev) to tonic/clonic seizure” value worked out at 53.48 ± 12.44 mg/kg. Further, where the note is “F2N1 wild-type (+/+) male mice”, the “Dose (average ± std dev) to death” value came to 181.91 ± 83.20 mg/kg, the “Dose (average ± std dev) to first twitch” value is 28.23 ± 5.58 mg/kg, the “Dose (average ± std dev) to tonic extension” value is listed as 126.54 ± 23.60 mg/kg and the “Dose (average ± std dev) to tonic/clonic seizure” value amounted to 39.62 ± 8.21 mg/kg.
